Where no end group is shown, it is not given here.
Key:
pdk1 knockout mice = assay: Genetic mouse model of heart failure (inducible cardiac specific PDK1 knockout); type: in vivo; settings: for cardiac (left ventricular) function, echocardiography: PDK1 knockout mice after tamoxifen, cell penetrating peptides
Protocol: (a, top) Design of study. Echo, echocardiography. (a, bottom) Fractional shortening (%) as determined by echocardiography in pdk1 knockout mice treated with mimetic peptide (TAT-MP) or scramble (TAT-scramble). (b) Western blotting analysis of Cavα1.2 and GAPDH protein levels of total protein lysates from left ventricular homogenates. Protein levels were normalized to GAPDH. (n=4) MP=SEQ ID NO:3, scramble=SEQ ID NO:11. Tamoxifen (TAM) and peptide was injected daily as indicated. Protein levels were normalized to GAPDH.
To explore the in vivo therapeutic potential, MP was used in an inducible and cardiac specific knockout of the phosphoinositide-dependent kinase 1 (PDK1), the upstream activator of all three Akt isoforms. […] We then treated the mice with either cell penetrating MP or scramble peptides and followed the phenotype for the following days. […] MP=SEQ ID NO: 3; TAT-scramble=scramble=SEQ ID NO:11.

Cavα1.2 [1] = assay: Western blot of Cavα1.2 protein levels in iPSC-CMs subjected to an Akt inhibitor; type: cell-based, human; settings: iPSC-CMs co-treated with Akt inhibitor
From the text: (a) Western blotting analysis of Cavα1.2 and GAPDH protein levels of total protein lysates from cardiomyocytes (CMs) differentiated from induced pluripotent stem cells (iPSCs) and previously derived from skin fibroblasts of healthy individuals. (n=4) Cells were untreated or treated with an Akt-inhibitor. MP=SEQ ID NO:3, scramble=SEQ ID NO:11.
(§1) Based on this, we next performed functional analyses and examined the iPSC-CM beating clusters (BCs) for Ca^2+ handling properties. […] On the other hand, no effects were observed when BCs were co-treated with scramble.

LTCC = target: T1, LTCC (Homo sapiens, UniProt Q08289); assay: Ca2+ current measurements in tSA-201 cells, serum removal; type: cell-based
T1 construct: expressed in transfected cells; host or cells: tSA-201
T1 sequence (Q08289 whole entry): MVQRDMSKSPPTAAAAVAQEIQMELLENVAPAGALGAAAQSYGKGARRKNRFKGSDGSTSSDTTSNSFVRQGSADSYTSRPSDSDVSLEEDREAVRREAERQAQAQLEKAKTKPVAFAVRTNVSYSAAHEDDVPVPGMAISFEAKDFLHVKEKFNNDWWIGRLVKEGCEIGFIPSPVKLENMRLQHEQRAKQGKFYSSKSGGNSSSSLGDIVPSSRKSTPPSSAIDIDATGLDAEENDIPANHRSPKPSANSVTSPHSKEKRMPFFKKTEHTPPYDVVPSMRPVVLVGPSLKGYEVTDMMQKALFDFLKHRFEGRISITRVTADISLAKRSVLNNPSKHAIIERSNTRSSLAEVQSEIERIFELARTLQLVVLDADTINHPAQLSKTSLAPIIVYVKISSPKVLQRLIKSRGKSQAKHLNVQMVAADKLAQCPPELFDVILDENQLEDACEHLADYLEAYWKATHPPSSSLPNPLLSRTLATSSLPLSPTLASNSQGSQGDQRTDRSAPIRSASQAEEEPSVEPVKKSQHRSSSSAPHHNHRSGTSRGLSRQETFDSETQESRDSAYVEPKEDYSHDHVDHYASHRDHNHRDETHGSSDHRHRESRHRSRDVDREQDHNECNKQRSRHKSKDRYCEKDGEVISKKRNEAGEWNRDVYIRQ
T1 sequence (Q13936 whole entry partner): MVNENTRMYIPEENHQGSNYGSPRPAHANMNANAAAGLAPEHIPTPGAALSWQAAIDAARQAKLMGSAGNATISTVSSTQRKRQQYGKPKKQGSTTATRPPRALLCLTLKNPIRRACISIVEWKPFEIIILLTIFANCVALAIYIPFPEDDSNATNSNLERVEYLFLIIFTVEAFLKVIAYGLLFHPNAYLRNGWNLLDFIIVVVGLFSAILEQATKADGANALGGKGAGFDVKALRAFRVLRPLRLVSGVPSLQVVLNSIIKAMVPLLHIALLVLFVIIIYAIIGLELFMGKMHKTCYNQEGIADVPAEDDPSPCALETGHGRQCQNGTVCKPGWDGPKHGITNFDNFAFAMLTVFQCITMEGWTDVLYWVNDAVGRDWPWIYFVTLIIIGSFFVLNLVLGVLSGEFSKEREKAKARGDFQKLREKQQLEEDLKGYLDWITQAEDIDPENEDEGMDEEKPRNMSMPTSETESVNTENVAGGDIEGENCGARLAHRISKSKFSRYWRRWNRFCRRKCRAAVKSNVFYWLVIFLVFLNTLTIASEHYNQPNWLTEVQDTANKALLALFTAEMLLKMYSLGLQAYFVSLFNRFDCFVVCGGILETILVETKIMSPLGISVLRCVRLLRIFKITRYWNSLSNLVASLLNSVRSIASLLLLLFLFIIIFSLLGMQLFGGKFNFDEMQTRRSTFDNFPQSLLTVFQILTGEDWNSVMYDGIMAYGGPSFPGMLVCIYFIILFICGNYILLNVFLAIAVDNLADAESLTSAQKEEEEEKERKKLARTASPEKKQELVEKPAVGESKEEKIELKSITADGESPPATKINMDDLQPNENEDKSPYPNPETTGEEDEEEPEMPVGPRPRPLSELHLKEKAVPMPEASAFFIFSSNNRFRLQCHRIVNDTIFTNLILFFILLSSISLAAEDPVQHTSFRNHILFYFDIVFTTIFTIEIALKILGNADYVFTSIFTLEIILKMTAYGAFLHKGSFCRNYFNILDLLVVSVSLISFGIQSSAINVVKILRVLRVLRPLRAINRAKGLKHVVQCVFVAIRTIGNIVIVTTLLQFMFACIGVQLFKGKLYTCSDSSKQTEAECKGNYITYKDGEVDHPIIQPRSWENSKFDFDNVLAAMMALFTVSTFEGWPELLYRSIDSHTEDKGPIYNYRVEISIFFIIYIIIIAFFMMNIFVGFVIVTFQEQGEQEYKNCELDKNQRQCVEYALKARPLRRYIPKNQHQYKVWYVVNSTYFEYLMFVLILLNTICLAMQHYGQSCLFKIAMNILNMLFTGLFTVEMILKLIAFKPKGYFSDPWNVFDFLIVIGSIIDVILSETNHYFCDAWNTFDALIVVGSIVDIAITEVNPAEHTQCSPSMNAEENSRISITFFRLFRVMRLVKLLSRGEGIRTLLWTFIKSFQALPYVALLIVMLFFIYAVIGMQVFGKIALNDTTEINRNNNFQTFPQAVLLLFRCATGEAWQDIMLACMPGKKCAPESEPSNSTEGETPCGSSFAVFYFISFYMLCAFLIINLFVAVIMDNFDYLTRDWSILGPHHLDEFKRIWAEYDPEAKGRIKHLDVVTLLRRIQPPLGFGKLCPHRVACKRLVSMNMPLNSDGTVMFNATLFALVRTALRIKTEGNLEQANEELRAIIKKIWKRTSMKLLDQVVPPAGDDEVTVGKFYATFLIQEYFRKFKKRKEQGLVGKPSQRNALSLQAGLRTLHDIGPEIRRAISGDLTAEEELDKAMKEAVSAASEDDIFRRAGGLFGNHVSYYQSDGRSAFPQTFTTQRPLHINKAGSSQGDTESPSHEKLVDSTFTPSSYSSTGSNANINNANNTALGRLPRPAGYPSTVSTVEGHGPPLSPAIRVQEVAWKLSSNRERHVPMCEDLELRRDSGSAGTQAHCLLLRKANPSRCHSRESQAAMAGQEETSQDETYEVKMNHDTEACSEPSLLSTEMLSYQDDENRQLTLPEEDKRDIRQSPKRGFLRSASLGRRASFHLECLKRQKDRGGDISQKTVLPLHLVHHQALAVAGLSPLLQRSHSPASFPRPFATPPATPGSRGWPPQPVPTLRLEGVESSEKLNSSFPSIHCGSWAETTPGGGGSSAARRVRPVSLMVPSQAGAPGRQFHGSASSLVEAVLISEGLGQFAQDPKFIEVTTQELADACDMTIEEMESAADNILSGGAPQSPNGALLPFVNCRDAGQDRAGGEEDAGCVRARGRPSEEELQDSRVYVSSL
From the text: (§2) a) Western blotting analysis of Cavα1.2 and GAPDH protein levels of total protein lysates; b) Intracellular Ca^2+fluxes; (c) Molecular modeling and docking of a peptide (SEQ ID NO:2, dark grey) to TID region (SEQ ID NO:10, light grey) of Cavβ2.; (d) Western blotting analysis of Cavα1.2 and GAPDH protein levels of total protein lysates; (e) Confocal analyses of adult cardiomyocytes treated with TAT-MP- and TAT-scramble-and stained with di 8-ANEPPS dye. MP=SEQ ID NO:3, scramble=SEQ ID NO:11. (f) Western blotting analysis of Cavα1.2 and GAPDH protein levels of total protein lysates from HEK293 cells treated with increasing doses of MP; (g) Ca^2+ current measurements in tSA-201 cells previously transfected. For Western blotting analyses, HEK293 or tSA-201 cells transfected or treated as indicated. Protein levels were normalized to GAPDH. (n=4). Data are shown as the means±SEM; *, P<0.05, **, P<0.005; ***, P<0.001.
(§3) To facilitate the intracellular uptake, a cell-penetrating peptide (CPP) was conjugated to the MP (SEQ ID NO: 3). […] Thus, the trans-activating transcriptional activator (TAT) from Human Immunodeficiency Virus 1 (HIV-1) was used. […] TAT-MP=SEQ ID NO: 3; TAT-scramble=scramble=SEQ ID NO:11.

iPSC-CM beating clusters = assay: Ca2+ handling in iPSC-CM beating clusters treated with Akt-inhibitor; type: cell-based, human; settings: iPSC-CM beating clusters co-treated with Akt-inhibitor
From the text: as §1

Cavα1.2 [2] = assay: Western blot of Cavα1.2 protein degradation in peptide-treated cells, serum removal; type: cell-based
From the text: as §2, §3

LTCCs = assay: Confocal analysis of co-localization with LTCCs in isolated adult cardiomyocytes; type: cell-based
From the text: as §2, §3

Cavα1.2 [3] = assay: Western blot of Cavα1.2 protein levels in HEK293 cells transfected with peptides, serum removal; type: cell-based; settings: specific mutations within either the MP or Cavα1.2
From the text: as §2
Based on the evidence shown in example 1, we next investigated whether mimetic peptides (MPs) might recapitulate the mechanism by which LTCCs are protected from protein degradation by binding to the TID domain. […]

Sequence | cardiac (left ventricular) function, echocardiography (pdk1 knockout mice) | downregulation of Cavα1.2 protein levels (Cavα1.2 [1]) | Ca2+ current (LTCC) | slowing (delay) of Ca2+ transient development (iPSC-CM beating clusters) | protection of Cavα1.2 from protein degradation (Cavα1.2 [2]) | co-localization with LTCCs (LTCCs) | LTCC protein levels (pdk1 knockout mice; left ventricular homogenates of PDK1 knockout mice) | protective effect on Cavα1.2 when mutations abolish the predicted MP-TID interaction (Cavα1.2 [3])
DQPPSRRDERA [scramble control peptide] | progressive impairment of left ventricular function | no rescuing effects | none of these effects were observed | no effects | none of these effects were observed | none of these effects were observed |  | 
DQRPDREAPRS [MP] | significant attenuation of the impairment of cardiac function | prevented |  | sufficient for reducing this delay |  |  | restoration of LTCC protein levels | completely lost

From patent US9873725B2, “Mimetic peptides which modulate L-type calcium channels” (CONSIGLIO NAZIONALE DELLE RICERCHE, priority 2014, dated 2018)
